From publication PMC2693909 (Journal of molecular biology, 2009)

Target: Hsc70 NBD (Hsc-70-NBD) (Bos taurus, UniProt P19120)
Assay: […]-1H NMR chemical shift differences, ATP versus ADP.Pi state
Assay type: binding
Conditions: neutral aqueous solution

Hsc70 NBD (Hsc-70-NBD), sequence (P19120 1-383 limits assumed): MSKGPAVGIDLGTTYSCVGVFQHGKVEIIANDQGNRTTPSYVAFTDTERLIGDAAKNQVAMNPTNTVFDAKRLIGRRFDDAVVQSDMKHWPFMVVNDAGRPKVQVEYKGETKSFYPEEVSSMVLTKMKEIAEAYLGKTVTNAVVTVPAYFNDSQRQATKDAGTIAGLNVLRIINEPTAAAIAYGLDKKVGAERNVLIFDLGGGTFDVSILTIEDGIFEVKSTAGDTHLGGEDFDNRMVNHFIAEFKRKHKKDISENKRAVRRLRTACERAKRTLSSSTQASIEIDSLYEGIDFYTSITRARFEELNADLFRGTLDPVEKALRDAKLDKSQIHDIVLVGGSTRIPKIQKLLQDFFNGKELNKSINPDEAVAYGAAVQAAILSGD

Q: Which “15N-1H NMR chemical shift differences, ATP versus ADP.Pi state” value (ATP state) does the source give for Nc1ncnc2c1ncn2[C@@H]1O[C@H](COP(=O)(O)OP(=O)(O)OP(=O)(O)O)[C@@H](O)[C@H]1O [ATP] here?
A: Its value is “NMR spectra of the isolated NBD of Hsc70 between the ADP.Pi and ATP state”.

Q: Nc1ncnc2c1ncn2[C@@H]1O[C@H](COP(=O)(O)OP(=O)(O)O)[C@@H](O)[C@H]1O [ADP] was tested. Which “15N-1H NMR chemical shift differences, ATP versus ADP.Pi state” value (ADP.Pi state) did it give?
A: The value was “NMR spectra of the isolated NBD of Hsc70 between the ADP.Pi and ATP state”.
